Legend:
Assay type in all cases: functional
Rattus norvegicus [1] = experiment: Analgesic activity in sc dosed rat by tail flick test
Rattus norvegicus [2] = experiment: Analgesic activity in sc dosed rat assessed as inhibition of phenazocine-induced effect
Mus musculus [3] = experiment: Analgesic activity in sc dosed mouse by acetylcholine writhing test
Rattus norvegicus [4] = experiment: Analgesic activity in sc dosed rat by intracarotid bradykinin test
Rattus norvegicus [5] = experiment: Analgesic activity in rat at 120 mg/kg, sc by tail flick test; conditions: route subcutaneous
Rattus norvegicus [6] = experiment: Analgesic activity in sc dosed rat assessed as inhibition of morphine-induced effect
Rattus norvegicus [7] = experiment: Analgesic activity in sc dosed rat assessed as inhibition of meperidine-induced effect
Mus musculus [8] = experiment: Analgesic activity in mouse at 25 mg/kg, sc by acetylcholine writhing test; conditions: route subcutaneous
Rattus norvegicus [9] = experiment: Analgesic activity in rat at 240 mg/kg, sc by tail flick test; conditions: route subcutaneous
[10] = Rattus norvegicus, Tail, sc, read-out: ED50
[11] = Mus musculus, sc, read-out: ED50
[12] = Rattus norvegicus, sc, read-out: ED50

| Compound | ED50 (Rattus norvegicus [1]; [10]) | AD50 (Rattus norvegicus [2]) | ED50 (Mus musculus [3]; [11]) | ED50 (Rattus norvegicus [4]; [12]) | further results |
| --- | --- | --- | --- | --- | --- |
| CC(C)C(=O)CC[C@]1(C)C2Cc3ccc(O)cc3[C@@]1(C)CCN2C.Cl (mixture of isomers) | 24 mg/kg | 80 mg/kg | 0.11 mg/kg | 0.12 mg/kg | – |
| CCCCCC(=O)CC[C@]1(C)C2Cc3ccc(O)cc3[C@@]1(C)CCN2C.CS(=O)(=O)O (stereo in doubt; (+)-3e) | 95 mg/kg | 80 mg/kg | – | – | ED50 (Mus musculus [3]): 11 mg/kg; ED50 (Rattus norvegicus [4]): 50 mg/kg |
| CCCC(=O)CC[C@]1(C)C2Cc3ccc(O)cc3[C@@]1(C)CCN2C.Cl (mixture of isomers) | 0.099 mg/kg | 80 mg/kg | 0.023 mg/kg | 0.019 mg/kg | – |
| COc1ccc2c(c1)[C@@]1(C)CCN(C)C(C2)[C@@]1(C)CCC(=O)C(C)C.CS(=O)(=O)O (mixture of isomers) | – | 80 mg/kg | 5 mg/kg | – | Activity (Rattus norvegicus [5]): 42% |
| CC(C)CCC(=O)CC[C@]1(C)C2Cc3ccc(O)cc3[C@@]1(C)CCN2C.Cl (stereo in doubt; (-)-3i) | – | 0.088 mg/kg | – | – | ED50 (Mus musculus [3]): 0.016 mg/kg; Activity (Rattus norvegicus [5]): 46% |
| CC(=O)CC[C@]1(C)C2Cc3ccc(O)cc3[C@@]1(C)CCN2C (mixture of isomers) | – | 40 mg/kg | 0.25 mg/kg | – | – |
| CCC(=O)CC[C@]1(C)C2Cc3ccc(OC)cc3[C@@]1(C)CCN2C.CS(=O)(=O)O (mixture of isomers) | 5.9 mg/kg | 1 mg/kg | 1.9 mg/kg | – | – |
| COc1ccc2c(c1)[C@@]1(C)CCN(C)C(C2)[C@@]1(C)CCC(=O)CC(C)C.CS(=O)(=O)O (mixture of isomers) | 4.3 mg/kg | 80 mg/kg | 1 mg/kg | – | – |
| CC(C)CCC(=O)CC[C@]1(C)C2Cc3ccc(O)cc3[C@@]1(C)CCN2C.Cl (stereo in doubt; (+)-3i) | 120 mg/kg | 20 mg/kg | – | – | ED50 (Mus musculus [3]): 10 mg/kg |
| CCCCCC(=O)CC[C@]1(C)C2Cc3ccc(OC)cc3[C@@]1(C)CCN2C.Cl (mixture of isomers) | 30 mg/kg | 10 mg/kg | 1.5 mg/kg | – | – |
| CCCCCC(=O)CC[C@]1(C)C2Cc3ccc(O)cc3[C@@]1(C)CCN2C.Cl (mixture of isomers) | 120 mg/kg | 0.008 mg/kg | 0.24 mg/kg | 0.043 mg/kg | AD50 (Rattus norvegicus [6]): 0.098 mg/kg; AD50 (Rattus norvegicus [7]): 0.19 mg/kg |
| CCCCCC(=O)CC[C@]1(C)C2Cc3ccc(O)cc3[C@@]1(C)CCN2C.CS(=O)(=O)O (single isomer, unassigned; (-)) | – | 0.005 mg/kg | – | – | ED50 (Rattus norvegicus [1]): 95 mg/kg; ED50 (Mus musculus [3]): 0.19 mg/kg; ED50 (Rattus norvegicus [4]): 0.022 mg/kg |
| CCCCCCC(=O)CC[C@]1(C)C2Cc3ccc(OC)cc3[C@@]1(C)CCN2C.Cc1ccc(S(=O)(=O)O)cc1 (mixture of isomers) | 120 mg/kg | 80 mg/kg | – | – | Activity (Mus musculus [8]): 20% |
| CO[C@@]12CC[C@@]3(C[C@@H]1[C@](C)(O)C(C)(C)C)[C@H]1Cc4ccc(O)c5c4[C@@]3(CCN1CC1CC1)[C@H]2O5 [BUPRENORPHINE] | – | 0.11 mg/kg | 0.059 mg/kg | 0.004 mg/kg | Activity (Rattus norvegicus [5]): 14% |
| C=CCN1CC[C@]23c4c5ccc(O)c4O[C@H]2C(=O)CC[C@@]3(O)[C@H]1C5 [NALOXONE] | – | 0.008 mg/kg | 60 mg/kg | – | AD50 (Rattus norvegicus [6]): 0.004 mg/kg; AD50 (Rattus norvegicus [7]): 0.004 mg/kg |
| CCC(=O)CC[C@]1(C)C2Cc3ccc(O)cc3[C@@]1(C)CCN2C.Cl (mixture of isomers) | 0.99 mg/kg | 1 mg/kg | 0.18 mg/kg | – | – |
| CC(C)CCC(=O)CC[C@]1(C)C2Cc3ccc(O)cc3[C@@]1(C)CCN2C.Cl (mixture of isomers) | – | 0.3 mg/kg | – | 0.032 mg/kg | ED50 (Mus musculus [3]): 0.074 mg/kg; Activity (Rattus norvegicus [9]): 47%; AD50 (Rattus norvegicus [6]): 0.58 mg/kg; AD50 (Rattus norvegicus [7]): 0.73 mg/kg |
| CC(C)CCCC(=O)CC[C@]1(C)C2Cc3ccc(O)cc3[C@@]1(C)CCN2C (mixture of isomers) | 120 mg/kg | 0.029 mg/kg | 5.3 mg/kg | – | – |
| C[C@H]1[C@H]2Cc3ccc(O)cc3[C@]1(C)CCN2CC1CC1 [CYCLAZOCINE] | – | 0.028 mg/kg | – | – | AD50 (Rattus norvegicus [6]): 0.029 mg/kg; AD50 (Rattus norvegicus [7]): 0.024 mg/kg |
| CCCCCCC(=O)CC[C@]1(C)C2Cc3ccc(O)cc3[C@@]1(C)CCN2C.Cl (mixture of isomers) | 120 mg/kg | 0.04 mg/kg | 12 mg/kg | 2.2 mg/kg | – |
| CC(C)CC(=O)CC[C@]1(C)C2Cc3ccc(O)cc3[C@@]1(C)CCN2C.Cl (mixture of isomers) | 0.067 mg/kg | 0.01 mg/kg | 0.019 mg/kg | 0.019 mg/kg | – |
| CC(=O)CC[C@]1(C)C2Cc3ccc(O)cc3[C@@]1(C)CCN2C.CS(=O)(=O)O (mixture of isomers) | 2.5 mg/kg | – | – | 0.19 mg/kg | – |
| CN1CC[C@]23c4c5ccc(O)c4O[C@H]2[C@@H](O)C=C[C@H]3[C@H]1C5 [MORPHINE] | 3.9 mg/kg | – | – | 2.3 mg/kg | – |
| COc1ccc2c(c1)[C@@]1(C)CCN(C)C(C2)[C@@]1(C)CCC(=O)CCC(C)C.Cl (mixture of isomers) | 16 mg/kg | 80 mg/kg | 2 mg/kg | 2.4 mg/kg | – |
| CCCCC(=O)CC[C@]1(C)C2Cc3ccc(OC)cc3[C@@]1(C)CCN2C.Cl (mixture of isomers) | 1.35 mg/kg | 1 mg/kg | 0.63 mg/kg | – | – |
| COc1ccc2c(c1)[C@@]1(C)CCN(C)C(C2)[C@@]1(C)CCC(=O)CCCC(C)C.Cl (mixture of isomers) | – | 80 mg/kg | 7.5 mg/kg | – | Activity (Rattus norvegicus [5]): 70% |
| CCCCC(=O)CC[C@]1(C)C2Cc3ccc(O)cc3[C@@]1(C)CCN2C.Cl (mixture of isomers) | 0.039 mg/kg | 0.1 mg/kg | 0.017 mg/kg | 0.012 mg/kg | – |
| CCCC(=O)CC[C@]1(C)C2Cc3ccc(OC)cc3[C@@]1(C)CCN2C.CS(=O)(=O)O (mixture of isomers) | 2 mg/kg | 80 mg/kg | 0.89 mg/kg | – | – |
| COc1ccc2c(c1)[C@@]1(C)CCN(C)C(C2)[C@@]1(C)CCC(C)=O.Cl (mixture of isomers) | – | – | 3.5 mg/kg | – | Activity (Rattus norvegicus [5]): 66% |

Source: ChEMBL document CHEMBL3244409, “(2,6-Methano-3-benzazocin-11 beta-yl)alkanones. 1. Alkylalkanones: a new series of N-methyl derivatives with novel opiate activity profiles” (1979)
